Data on ten compounds can be found in patent US20070015823A1, “Ambruticin VS compounds” (priority 2004, published 2007).

The structures appear in SMILES notation. ≈ marks a conversion by molar mass, not a printed value. Like-named read-outs stand apart in the source and are kept apart here.

What is called MIC is the smallest concentration in the dilution series that meets the test's criterion for growth inhibition.

The subject of experiment [1] is A. flavus ATCC 204304. As to the kind of experiment: Broth microdilution antifungal susceptibility, NCCLS M38-A. The format is cell-based, Aspergillus flavus. As to conditions: minimal concentration inhibiting >95% growth; average of at least two assays (except I-l and I-x). Background: Broth dilution looks for growth in wells or tubes with falling amounts of substance.

Experiment [2] has as its system A. fumigatus ATCC 204305. The experiment is described as above. It is filed as cell-based, Aspergillus fumigatus. The following applies: minimal concentration inhibiting >95% growth; average of at least two assays (except I-l and I-x).
Experiment [3] relates to Cryptococcus neoformans. Described as above. The following applies: 50% growth inhibition, range = minimum and maximum of multiple assays; for MIC C. neoformans 97-14: strain 97-14; for MIC C. neoformans 11239: strain 11239; for MIC C. neoformans 11240: strain 11240.
In experiment [4] the test system is C. immitis. As to the kind of experiment: microbe, parasite or virus in culture. The format is cell-based, Coccidioides immitis.
For experiment [5], the system named is Histoplasma capsulatum. The format is cell-based.
Experiment [6] concerns Blastomyces dermatitidis. As to the kind of experiment: Broth microdilution antifungal susceptibility, NCCLS M38-A. It is filed as cell-based.
Experiment [7] has as its system Candida albicans. The following applies: Candida albicans.

Regarding `CC[C@H]1O[C@@H](/C(C)=C/[C@H](C)/C=C/[C@H]2[C@@H](C)[C@@H]2/C=C/[C@@H]2O[C@H](CC(=O)O)CC(=O)[C@H]2O)CC=C1C` [5-keto ambruticin S, (6R)-5-Oxo-6-hydroxypolyangioic acid, reference compound], the “MIC0 A. flavus ATCC 204304” value in experiment [1] is 1.0 µg/mL. For the same compound, the “MIC0 A. fumigatus ATCC 204305” value in experiment [2] is 2.0 µg/mL. Further, in experiment [3], the “MIC C. neoformans 97-14” value is 0.5 µg/mL (≈ 1.06 µM), the “MIC C. neoformans 11239” value is 2 µg/mL (≈ 4.23 µM) and the “MIC C. neoformans 11240” value is 2 µg/mL (≈ 4.23 µM).

In the case of `CC[C@H]1O[C@@H](/C(C)=C/[C@H](C)/C=C/[C@H]2[C@@H](C)[C@@H]2/C=C/[C@@H]2O[C@H](CC(=O)O)C[C@H](NC)[C@H]2O)CC=C1C` [Ambruticin VS-4, (5S,6R)-5-(methylamino)-6-hydroxypolyangioic acid, reference compound], in experiment [4], the “MIC2 C. immitis 05-469” value is reported as “≦0.15 μg/mL”, the “MIC2 C. immitis 05-955” value was “≦0.15 μg/mL” and the “MIC2 C. immitis 05-1387” value is on record as “≦0.15 μg/mL”. For the same compound, in experiment [5], the “MIC2 H. capsulatum 05-959” value is given as “≦0.15 μg/mL”, the “MIC2 H. capsulatum 05-1097” value is reported as “≦0.15 μg/mL” and the “MIC2 H. capsulatum 05-1159” value was “≦0.15 μg/mL”. Further, the “MIC0 A. flavus ATCC 204304” value in experiment [1] was 0.47 µg/mL. Also, in experiment [6], the “MIC2 B. dermatitidis 05-106” value is reported as “≦0.15 μg/mL”, the “MIC2 B. dermatitidis 05-186” value is on record as “≦0.15 μg/mL” and the “MIC2 B. dermatitidis 05-1291” value is listed as “≦0.15 μg/mL”. Moreover, in experiment [2], the “MIC0 A. fumigatus ATCC 204305” value was determined as 0.60 µg/mL.

Take `CC[C@H](C)C[C@H](C)CCCCCCCCC(=O)N[C@H]1C[C@@H](O)[C@@H](NCCN)NC(=O)[C@@H]2[C@@H](O)CCN2C(=O)[C@H]([C@H](O)CCN)NC(=O)[C@H]([C@H](O)[C@@H](O)c2ccc(O)cc2)NC(=O)[C@@H]2C[C@@H](O)CN2C(=O)[C@H]([C@@H](C)O)NC1=O` [Caspofungin, reference compound]: the minimal inhibitory concentration (MIC) in experiment [7] (read-out: MIC C. albicans 24433) and in experiment [7] (read-out: MIC C. albicans 90028) was 2 µg/mL (≈ 1.83 µM) each time.

Turning to `CC[C@H]1O[C@@H](/C(C)=C/[C@H](C)/C=C/[C@H]2[C@@H](C)[C@@H]2/C=C/[C@@H]2O[C@H](CC(=O)O)C[C@H](N(C)CC3CC3)[C@H]2O)CC=C1C` [I-b, (5S,6R)-5-(N-cyclopropylmethyl-methylamino)-6-hydroxypolyangioic acid], the “MIC0 A. flavus ATCC 204304” value in experiment [1] was determined as 1.5 µg/mL. Also, the “MIC0 A. fumigatus ATCC 204305” value in experiment [2] amounted to 1.5 µg/mL. In addition, in experiment [3], the “MIC C. neoformans 97-14” value came out at 2 µg/mL (≈ 3.69 µM), the “MIC C. neoformans 11239” value was 2 µg/mL (≈ 3.69 µM) and the “MIC C. neoformans 11240” value was 2 µg/mL (≈ 3.69 µM).

As to `CC[C@H]1O[C@@H](/C(C)=C/[C@H](C)/C=C/[C@H]2[C@@H](C)[C@@H]2/C=C/[C@@H]2O[C@H](CC(=O)O)C[C@H](N(C)C3CCCC3)[C@H]2O)CC=C1C` [I-c, (5S,6R)-5-(N-cyclopentyl-methylamino)-6-hydroxypolyangioic acid], the “MIC0 A. flavus ATCC 204304” value in experiment [1] worked out at 2.0 µg/mL. Besides, in experiment [2], the “MIC0 A. fumigatus ATCC 204305” value was 2.67 µg/mL. Also, in experiment [3], the “MIC C. neoformans 97-14” value stood at 1 µg/mL (≈ 1.8 µM), the “MIC C. neoformans 11239” value amounted to 2 µg/mL (≈ 3.6 µM) and the “MIC C. neoformans 11240” value came out at 2 µg/mL (≈ 3.6 µM).

`CC[C@H]1O[C@@H](/C(C)=C/[C@H](C)/C=C/[C@H]2[C@@H](C)[C@@H]2/C=C/[C@@H]2O[C@H](CCO)C[C@H](NC)[C@H]2O)CC=C1C` [I-ee, (5S,6R)-5-(methylamino)polyangi-1,6-diol]: the “MIC0 A. flavus ATCC 204304” value in experiment [1] is 3 µg/mL. Further, in experiment [2], the “MIC0 A. fumigatus ATCC 204305” value turned out to be 9.5 µg/mL. Also, in experiment [3], the “MIC C. neoformans 97-14” value was 2 µg/mL (≈ 4.22 µM), the “MIC C. neoformans 11239” value was found to be 2 µg/mL (≈ 4.22 µM) and the “MIC C. neoformans 11240” value stood at 2 µg/mL (≈ 4.22 µM).

On to `CC[C@H]1O[C@@H](/C(C)=C/[C@H](C)/C=C/[C@H]2[C@@H](C)[C@@H]2/C=C/[C@@H]2O[C@H](CC(=O)O)C[C@H](NC(C)C)[C@H]2O)CC=C1C` [I-kk, (5S,6R)-5-(isopropylamino)-6-hydroxypolyangioic acid], for which, in experiment [5], the “MIC H. capsulatum G217B” value was under 0.19 µg/mL and the “MIC H. capsulatum GS20” value is under 0.19 µg/mL. Further, in experiment [1], the “MIC0 A. flavus ATCC 204304” value turned out to be 1.1 µg/mL. In addition, in experiment [6], the “MIC B. dermatitidis Gu” value worked out at 12.5 µg/mL (≈ 24.2 µM), the “MIC B. dermatitidis Kr” value is over 12.5 µg/mL and the “MIC B. dermatitidis V” value was over 12.5 µg/mL. Besides, the “MIC0 A. fumigatus ATCC 204305” value in experiment [2] was 1 µg/mL. In experiment [3], the “MIC C. neoformans 97-14” value was determined as 0.25 µg/mL (≈ 0.485 µM), the “MIC C. neoformans 11239” value worked out at 0.125 µg/mL (≈ 0.242 µM) and the “MIC C. neoformans 11240” value was determined as 0.0625 µg/mL (≈ 0.121 µM).

Regarding `CC[C@H]1O[C@@H](/C(C)=C/[C@H](C)/C=C/[C@H]2[C@@H](C)[C@@H]2/C=C/[C@@H]2O[C@H](CC(=O)O)C[C@H](NCCO)[C@H]2O)CC=C1C` [I-ll, (5S,6R)-5-[(2-hydroxyethyl)amino]-6-hydroxypolyangioic acid], in experiment [1], the “MIC0 A. flavus ATCC 204304” value was 10 µg/mL. In experiment [2], the “MIC0 A. fumigatus ATCC 204305” value was found to be 10 µg/mL. For the same compound, in experiment [3], the “MIC C. neoformans 97-14” value came to 0.5 µg/mL (≈ 0.966 µM), the “MIC C. neoformans 11239” value is 1 µg/mL (≈ 1.93 µM) and the “MIC C. neoformans 11240” value came to 0.5 µg/mL (≈ 0.966 µM).

`CC[C@H]1O[C@@H](/C(C)=C/[C@H](C)/C=C/[C@H]2[C@@H](C)[C@@H]2/C=C/[C@@H]2O[C@H](CCO)C[C@H](N(C)CCO)[C@H]2O)CC=C1C` [I-nn, (5S,6R)-5-[N-(2-hydroxyethyl)methylamino]polyangi-1,6-diol]: in experiment [5], the “MIC H. capsulatum G217B” value was under 0.19 µg/mL and the “MIC H. capsulatum GS20” value was under 0.19 µg/mL. Besides, the “MIC0 A. flavus ATCC 204304” value in experiment [1] amounted to 4 µg/mL. Also, in experiment [6], the “MIC B. dermatitidis Gu” value was over 12.5 µg/mL, the “MIC B. dermatitidis Kr” value is over 12.5 µg/mL and the “MIC B. dermatitidis V” value was over 12.5 µg/mL. In addition, in experiment [2], the “MIC0 A. fumigatus ATCC 204305” value amounted to 32 µg/mL.

Turning to `CC[C@H]1O[C@@H](/C(C)=C/[C@H](C)/C=C/[C@H]2[C@@H](C)[C@@H]2/C=C/[C@@H]2O[C@H](CCO)C[C@H](N(C)C(C)C)[C@H]2O)CC=C1C` [I-oo, (5S,6R)-5-(N-isoproyl-methylamino)polyangi-1,6-diol], in experiment [5], the “MIC H. capsulatum G217B” value was under 0.19 µg/mL and the “MIC H. capsulatum GS20” value is under 0.19 µg/mL. Also, the “MIC0 A. flavus ATCC 204304” value in experiment [1] was 2 µg/mL. Also, in experiment [6], the “MIC B. dermatitidis Gu” value was 0.39 µg/mL (≈ 0.756 µM), the “MIC B. dermatitidis Kr” value was over 12.5 µg/mL and the “MIC B. dermatitidis V” value was over 12.5 µg/mL. The “MIC0 A. fumigatus ATCC 204305” value in experiment [2] was 32 µg/mL.
